{"source": "patent US20260130933A1", "about": "“PHARMACEUTICAL COMPOSITION FOR PREVENTION OR TREATMENT OF NEPHROPATHY AND/OR DIABETES MELLITUS, COMPRISING ENAVOGLIFLOZIN” (DAEWOONG PHARMACEUTICAL CO., LTD., priority 2022, published 2026)", "test": "Example 2: phase 3 trial, enavogliflozin 0.3 mg vs dapagliflozin 10 mg once a day for 24 weeks added to metformin in patients with type 2 diabetes (same efficacy, exploratory and safety endpoints)", "type": "in vivo, human", "method": "Subjects who met the inclusion/exclusion criteria were administered a placebo of the clinical trial drug under single-blind (subject blinding) conditions during a 2-week run-in period while continuing to receive metformin. […] The randomized subjects were administered two tablets of the clinical trial drug for each administration group once a day, and then visited the institution at weeks 6, 12, 18, and 24 during the 24-week administration period to conduct efficacy and safety evaluations.\n• 1. Change in HbA1c at week 24 after administration of clinical trial drug compared to Visit 2 (randomization)\n• 1. Change in HbA1c at each time point of weeks 6, 12, and 18 after administration of clinical trial drug compared to Visit 2 (randomization) • 2. Change in FPG at each time point of weeks 6, 12, 18, and 24 after administration of clinical trial drug compared to Visit 2 (randomization) • 3. Proportion of subjects achieving HbA1c<7% at each time point of weeks 6, 12, 18, and 24 after administration of clinical trial drug • 4. Proportion of subjects achieving HbA1c<6.5% at each time point of weeks 6, 12, 18, and 24 after administration of clinical trial drug • 5. Proportion of subjects achieving therapeutic response (HbA1c change (HbA1c at Visit 2-HbA1c at each evaluation time point)>0.5% or HbA1c<7% at each evaluation time point compared to Visit 2 (randomization)) at each time point of weeks 6, 12, 18 and 24 after administration of clinical trial drug\n• 1. Change in fasting c-peptide at each time point of weeks 6, 12, 18, and 24 after administration of clinical trial drug compared to Visit 2 (randomization) • 2. Change in body weight at each time point of weeks 6, 12, 18, and 24 after administration of clinical trial drug compared to Visit 2 (randomization) • 3. Change in fasting lipid concentration (total cholesterol, LDL-C, HDL-C, and triglycerides) at each time point of weeks 6, 12, 18, and 24 after administration of clinical trial drug compared to Visit 2 (randomization) • 4. Changes in systolic or diastolic blood pressure at each time point of weeks 6, 12, 18, and 24 after administration of clinical trial drug compared to Visit 2 (randomization) • 5. Changes in β-cell function and insulin resistance measured by HOMA-β and HOMA-IR at each time point of weeks 6, 12, 18, and 24 after administration of clinical trial drug compared to Visit 2 (randomization) • 6. Changes in renal function-related indicators (UACR, UGCR) measured by UACR at each time point of weeks 6, 12, 18, and 24 after administration of clinical trial drug compared to Visit 2 (randomization) • 7. Changes in obesity-related indicators (adiponectin, leptin) at each time point of weeks 6, 12, 18, and 24 after administration of clinical trial drug compared to Visit 2 (randomization)", "key": {"[1]": {"conditions": "week 18, per-protocol set, enavogliflozin 0.3 mg, dapagliflozin 10 mg"}, "[2]": {"conditions": "week 24, listed as enavogliflozin"}, "[3]": {"conditions": "week 24, modified per-protocol set 1, enavogliflozin 0.3 mg, dapagliflozin 10 mg"}, "[4]": {"conditions": "week 24, per-protocol set, enavogliflozin 0.3 mg vs dapagliflozin 10 mg"}, "[5]": {"conditions": "week 24, per-protocol set, enavogliflozin 0.3 mg, dapagliflozin 10 mg"}}, "data": [{"compound": "OC[C@H]1O[C@@H](c2cc(Cc3ccc(C4CC4)cc3)c(Cl)c3c2CCO3)[C@H](O)[C@@H](O)[C@@H]1O", "note": "[Enavogliflozin, (2S,3R,4R,5S,6R)-2-(7-chloro-6 (4-cyclopropylbenzyl)-2,3-dihydrobenzofuran-4-yl)-6-(hydroxymethyl)tetrahydro-2H-pyran-3,4,5-triol]", "values": [{"measurement": "Subjects achieving HbA1c target of <6.5%, (%)", "setting": "[1]", "value": "(9.89) %"}, {"measurement": "Subjects achieving therapeutic glycemic response, (%)", "setting": "[1]", "value": "(80.22) %"}, {"measurement": "body weight, Mean (SD)", "setting": "[1]", "value": "66.72(11.26) kg"}, {"measurement": "body weight, Median", "setting": "[1]", "value": 64.30, "unit": "kg"}, {"measurement": "fasting c-peptide, Mean (SD)", "setting": "[1]", "value": "0.65(0.24) ng/mL"}, {"measurement": "fasting c-peptide, Median", "setting": "[1]", "value": 0.61, "unit": "ng/mL"}, {"measurement": "FPG change from baseline, LS mean (SE)", "setting": "week 24", "value": "−32.53(1.76) mg/dL"}, {"measurement": "HOMA-IR change from baseline, LS mean (SE)", "setting": "week 24", "value": "−1.85(0.13)"}, {"measurement": "HOMA-β change from baseline, LS mean (SE)", "setting": "week 24", "value": "6.94(3.17)"}, {"measurement": "HbA1c change from baseline, LS mean (SE)", "setting": "week 24", "value": "−0.80", "unit": "% p"}, {"measurement": "HbA1c change from baseline, Mean (SD)", "setting": "week 24", "value": "−0.78", "unit": "% p"}, {"measurement": "HbA1c, Mean", "setting": "week 24", "value": 6.98, "unit": "%"}, {"measurement": "LDL-C change from baseline, LS mean (SE)", "setting": "week 24", "value": "1.64(1.92) mg/dL"}, {"measurement": "Subjects achieving HbA1c target of <7%", "setting": "week 24", "value": "(61.05) %"}, {"measurement": "Subjects achieving HbA1c<6.5%", "setting": "week 24", "value": 13.68, "unit": "%"}, {"measurement": "Subjects achieving therapeutic response (HbA1c change >0.5% or HbA1c<7%)", "setting": "week 24", "value": 78.95, "unit": "%"}, {"measurement": "UACR change from baseline, LS mean (SE)", "setting": "week 24", "value": "−24.29(3.38) g/kg"}, {"measurement": "UGCR change from baseline, LS mean (SE)", "setting": "week 24", "value": "60.48(2.12) mg/mg"}, {"measurement": "diastolic blood pressure change from baseline, LS mean (SE)", "setting": "week 24", "value": "−5.41(0.65) mmHg"}, {"measurement": "fasting c-peptide change from baseline, LS mean (SE)", "setting": "week 24", "value": "−0.10(0.16) ng/ml"}, {"measurement": "leptin change from baseline, LS mean (SE)", "setting": "week 24", "value": "−2.40(0.51) ng/mL"}, {"measurement": "FPG change from baseline, LS mean difference", "setting": "week 24, vs dapagliflozin", "value": -3.38, "unit": "mg/dL"}, {"measurement": "HDL-C change from baseline, LS mean difference", "setting": "week 24, vs dapagliflozin", "value": -0.14, "unit": "mg/dL"}, {"measurement": "HOMA-IR change from baseline, LS mean difference", "setting": "week 24, vs dapagliflozin", "value": "−0.53"}, {"measurement": "HOMA-β change from baseline, LS mean difference", "setting": "week 24, vs dapagliflozin", "value": "−4.99"}, {"measurement": "HbA1c change from baseline, LS mean difference", "setting": "week 24, vs dapagliflozin", "value": "−0.04", "unit": "% p"}, {"measurement": "LDL-C change from baseline, LS mean difference", "setting": "week 24, vs dapagliflozin", "value": 0.71, "unit": "mg/dL"}, {"measurement": "Odds ratio for achieving HbA1c<6.5%", "setting": "week 24, vs dapagliflozin", "value": 0.40}, {"measurement": "Odds ratio for achieving HbA1c<7%", "setting": "week 24, vs dapagliflozin", "value": 0.97}, {"measurement": "Odds ratio for achieving therapeutic response", "setting": "week 24, vs dapagliflozin", "value": 1.30}, {"measurement": "UACR change from baseline, LS mean difference", "setting": "week 24, vs dapagliflozin", "value": "−6.93"}, {"measurement": "UGCR change from baseline, LS mean difference", "setting": "week 24, vs dapagliflozin", "value": 15.54, "unit": "mg/mg"}, {"measurement": "body weight change from baseline, LS mean difference", "setting": "week 24, vs dapagliflozin", "value": -0.18, "unit": "kg"}, {"measurement": "diastolic blood pressure change from baseline, LS mean difference", "setting": "week 24, vs dapagliflozin", "value": "−1.15", "unit": "mmHg"}, {"measurement": "fasting c-peptide change from baseline, LS mean difference", "setting": "week 24, vs dapagliflozin", "value": -0.06, "unit": "ng/mL"}, {"measurement": "leptin change from baseline, LS mean difference", "setting": "week 24, vs dapagliflozin", "value": -1.12, "unit": "ng/mL"}, {"measurement": "systolic blood pressure change from baseline, LS mean difference", "setting": "week 24, vs dapagliflozin", "value": 0.63, "unit": "mmHg"}, {"measurement": "total cholesterol change from baseline, LS mean difference", "setting": "week 24, vs dapagliflozin", "value": 2.40, "unit": "mg/dL"}, {"measurement": "triglyceride change from baseline, LS mean difference", "setting": "week 24, vs dapagliflozin", "value": 1.63, "unit": "mg/dL"}, {"measurement": "HbA1c change from baseline, LS mean (SE)", "setting": "[2]", "value": "−0.80(0.06) % p"}, {"measurement": "HbA1c change from baseline, Mean (SD)", "setting": "[2]", "value": "−0.78(0.73) % p"}, {"measurement": "Subjects achieving HbA1c target of <7%", "setting": "[2]", "value": 61.05, "unit": "%"}, {"measurement": "Change from baseline in total cholesterol, ANCOVA LS mean difference", "setting": "week 24, modified per-protocol set 1, enavogliflozin 0.3 mg vs dapagliflozin 10 mg", "value": 2.40, "unit": "mg/dL"}, {"measurement": "Change from baseline in Total cholesterol, ANCOVA LS mean (SE)", "setting": "[3]", "value": "9.13(2.22) mg/dL"}, {"measurement": "Change from baseline in Total cholesterol, Mean (SD)", "setting": "[3]", "value": "7.99(20.78) mg/dL"}, {"measurement": "Change from baseline in total cholesterol, Median", "setting": "[3]", "value": 11.00, "unit": "mg/dL"}, {"measurement": "fasting Total cholesterol, Mean (SD)", "setting": "[3]", "value": "159.42(32.17) mg/dL"}, {"measurement": "fasting Total cholesterol, Median", "setting": "[3]", "value": 157.00, "unit": "mg/dL"}, {"measurement": "Change from baseline in FPG, ANCOVA LS mean difference", "setting": "[4]", "value": -3.38, "unit": "mg/dL"}, {"measurement": "Change from baseline in body weight, ANCOVA LS mean difference", "setting": "[4]", "value": -0.18, "unit": "kg"}, {"measurement": "Change from baseline in fasting c-peptide, ANCOVA LS mean difference", "setting": "[4]", "value": -0.06, "unit": "ng/mL"}, {"measurement": "Odds ratio for achieving HbA1c target of <6.5%, logistic regression model", "setting": "[4]", "value": 0.40}, {"measurement": "Odds ratio for achieving therapeutic glycemic response, logistic regression model", "setting": "[4]", "value": 1.30}, {"measurement": "Change from baseline in FPG, ANCOVA LS mean (SE)", "setting": "[5]", "value": -32.53, "unit": "mg/dL"}, {"measurement": "Change from baseline in FPG, Mean (SD)", "setting": "[5]", "value": -31.77, "unit": "mg/dL"}, {"measurement": "Change from baseline in FPG, Median", "setting": "[5]", "value": -31.00, "unit": "mg/dL"}, {"measurement": "Change from baseline in body weight, ANCOVA LS mean (SE)", "setting": "[5]", "value": "−3.77(0.33) kg"}, {"measurement": "Change from baseline in body weight, Mean (SD)", "setting": "[5]", "value": "−3.78(3.77) kg"}, {"measurement": "Change from baseline in body weight, Median", "setting": "[5]", "value": -3.60, "unit": "kg"}, {"measurement": "Change from baseline in fasting c-peptide, ANCOVA LS mean (SE)", "setting": "[5]", "value": "−0.10(0.02) ng/mL"}, {"measurement": "Change from baseline in fasting c-peptide, Mean (SD)", "setting": "[5]", "value": "−0.10(0.16) ng/mL"}, {"measurement": "Change from baseline in fasting c-peptide, Median", "setting": "[5]", "value": -0.07, "unit": "ng/mL"}, {"measurement": "FPG, Mean (SD)", "setting": "[5]", "value": 113.58, "unit": "mg/dL"}, {"measurement": "FPG, Median", "setting": "[5]", "value": 113.00, "unit": "mg/dL"}, {"measurement": "Subjects achieving HbA1c target of <6.5%, (%)", "setting": "[5]", "value": "(13.68) %"}, {"measurement": "Subjects achieving therapeutic glycemic response, (%)", "setting": "[5]", "value": "(78.95) %"}, {"measurement": "body weight, Mean (SD)", "setting": "[5]", "value": "66.39(10.90) kg"}, {"measurement": "body weight, Median", "setting": "[5]", "value": 64.40, "unit": "kg"}, {"measurement": "fasting c-peptide, Mean (SD)", "setting": "[5]", "value": "0.62(0.22) ng/mL"}, {"measurement": "fasting c-peptide, Median", "setting": "[5]", "value": 0.56, "unit": "ng/mL"}]}]}
